Experiments:
[1] = Degradation Example 1: oxidation with hydrogen peroxide, monitored by HPLC; type: physicochemical; details: after further addition of 10 μl of 30% H2O2, two hours at RT
Source text: In order to check out the stability of the boranophosphates described in this invention towards oxidising conditions in comparison to the corresponding phosphorothioates, 0.1 μmol of the sodium salts of each, Rp-8-bromoadenosine-3′,5′-cyclic boranophosphate (Rp-8-Br-cAMPB, example 1), Sp-8-bromoadenosine-3′,5′-cyclic boranophosphate (Sp-8-Br-cAMPB, example 2), Rp-8-bromoadenosine-3′,5′-cyclic phosphorothioate (Rp-8-Br-cAMPS, Biolog) and Sp-8-bromoadenosine-3′,5′-cyclic phosphorothioate (Sp-8-Br-cAMPS, Biolog) were dissolved in 100 μl of eluent and the mixture was analyzed by HPLC (RP-18, 11% acetonitrile, 20 mM triethylammonium formate buffer, pH 6.1, 1.5 ml/min, UV 258 nm). The following elution profile was recorded: Rp-8-Br-cAMPS (5:13 min.)<Sp-8-Br-cAMPS (7:23 min.)<Sp-8-Br-cAMPB (9:13 min.)<Rp-8-Br-cAMPB ([…].).
Subsequently, aqueous hydrogen peroxide (Merck) was added in small portions while the stability of the four compounds was permanently monitored over time.
10 μl of H2O2 (0.3%) as well as 10 μl of 3% H2O2 were added to no effect.

[2] = molecular target: protein kinase A type II alpha holoenzyme (Homo sapiens, UniProt P13861); assay: Photometric (Cook) assay with protein kinase A type II alpha holoenzyme; type: biochemical; details: for effect on protein kinase A type II alpha holoenzyme: photometric assay
Source text: In another similar experiment the properties of Rp- and Sp-8-Br-cAMPB towards protein kinase A type II a were investigated in the photometric assay (Cook, P. F., Neville, M. E., Jr., Vrana, K. E., Hartl, F. T. and Roskoski, R., Jr., Biochemistry 21, 5794-5799 (1982))

bovine CNGA2 channels = molecular target: T1, bovine CNGA2 channels (Bos taurus, UniProt Q03041); assay: Patch-clamp of inside-out oocyte membrane patches with olfactory CNGA2 channels; type: cell-based; details: for current amplitude, % of the amplitude observed in the absence of the compound: 50 μM cAMP, 50 μM compound, n=9; for inhibition of channel activation by cAMP: applied in the presence of cAMP; for current, % of its maximal value: 500 μM compound, maximal value at 500 μM cAMP, n=3
T1 construct: expressed in transfected cells; host or cells: Xenopus laevis oocytes (cRNA injection; inside-out membrane patches)
T1 sequence (Q03041 1-663): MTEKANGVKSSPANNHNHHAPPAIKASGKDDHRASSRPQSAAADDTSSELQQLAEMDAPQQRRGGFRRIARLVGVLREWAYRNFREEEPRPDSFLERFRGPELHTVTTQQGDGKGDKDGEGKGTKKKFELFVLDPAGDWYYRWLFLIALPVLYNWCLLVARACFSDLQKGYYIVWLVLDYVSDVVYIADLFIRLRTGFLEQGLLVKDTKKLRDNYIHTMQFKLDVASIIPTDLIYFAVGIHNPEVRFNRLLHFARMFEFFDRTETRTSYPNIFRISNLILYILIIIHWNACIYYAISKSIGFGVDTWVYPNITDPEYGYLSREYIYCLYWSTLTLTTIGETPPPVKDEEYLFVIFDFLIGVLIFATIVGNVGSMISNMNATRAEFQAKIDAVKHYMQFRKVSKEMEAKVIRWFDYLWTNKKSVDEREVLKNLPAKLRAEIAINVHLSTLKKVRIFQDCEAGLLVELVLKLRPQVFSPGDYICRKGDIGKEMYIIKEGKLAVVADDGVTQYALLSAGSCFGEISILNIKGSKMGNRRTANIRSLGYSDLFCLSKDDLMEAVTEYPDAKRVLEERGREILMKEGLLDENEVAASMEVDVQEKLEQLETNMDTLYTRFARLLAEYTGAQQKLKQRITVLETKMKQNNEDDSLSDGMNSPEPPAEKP
Source text: Next, the effects of cyclic nucleotide boranophosphates, disclosed in this invention, on olfactory cyclic nucleotide-gated ion channels in clamps of oocyte cell membrane patches were investigated.
For the experiments, oocytes were obtained and prepared as described previously (Biskup, C. et al., Nature 446, 440-443 (2007)). In brief, oocytes were obtained by partial ovariectomy from adult females of Xenopus laevis anaesthesized with 0.3% 3-aminobenzoic acid ethyl ester (Sigma). The oocytes were treated for 60-90 min with 1.2 mg/ml collagenase (Type I, Sigma) and separated manually. 40-70 nl of a solution containing cRNA encoding bovine CNGA2 channels (accession No. X55010) was injected, and the oocytes were incubated at 18° C. in Barth medium until they were used for the experiments within 3-6 days after injection. Immediately prior to the experiments the vitelline membrane of the oocytes was removed.
Currents were recorded in inside-out patches with the patch-clamp technique. The patch pipettes were pulled from quartz tubing (outer diameter 1.0 mm, inner diameter 0.7 mm) using a laser puller (P-2000, Sutter Instrument, Novato, Calif.). The pipette resistance was 0.8-2.5 MΩ. Recording was performed with an Axopatch 200B amplifier (Molecular Devices, Sunnyvale, Calif.). All experiments were performed with the same recording solution in the bath and the pipette containing (in mM) 150 KCl, 1 EGTA, 5 HEPES. pH was adjusted to 7.4 with KOH.
Measurements were controlled and data were collected with the ISO3 setup (MFK, Niedernhausen, Germany). The sampling rate was 5 kHz (filter 2 kHz). To test for possible background channel activity, each excised patch was first exposed to a solution containing no cyclic nucleotides.
FIGS. 15 A-C depict the agonistic activity of Rp-8-Br-cAMPB on CNGA2 channels. Currents were recorded in a patch containing CNGA2 channels. The patch membrane was clamped subsequently from 0 mV to −50 mV, +50 mV and back to 0 mV. […] (C) Current measured in the presence of 500 μM Rp-8-Br-cAMPB.
FIGS. 16 A-F depict the antagonistic activity of Sp-8-Br-cAMPB on CNGA2 channels. Currents were recorded in a patch containing CNGA2 channels. The patch membrane was clamped subsequently from 0 mV to −50 mV, +50 mV and back to 0 mV.

protein kinase A type II alpha holoenzyme, sequence (P13861 whole entry): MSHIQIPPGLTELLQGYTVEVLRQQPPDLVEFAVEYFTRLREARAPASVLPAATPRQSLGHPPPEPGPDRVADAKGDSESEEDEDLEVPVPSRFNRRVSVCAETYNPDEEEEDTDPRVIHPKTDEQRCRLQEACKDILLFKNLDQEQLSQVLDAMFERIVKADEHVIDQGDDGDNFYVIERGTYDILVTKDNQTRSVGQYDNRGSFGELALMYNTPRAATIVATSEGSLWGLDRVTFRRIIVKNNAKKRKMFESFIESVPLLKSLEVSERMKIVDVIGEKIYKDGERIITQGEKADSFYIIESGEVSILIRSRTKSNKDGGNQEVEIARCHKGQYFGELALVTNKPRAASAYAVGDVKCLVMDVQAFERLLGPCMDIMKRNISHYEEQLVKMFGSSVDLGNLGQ

HPLC signal area lost [1] [%]	preference for protein kinase A type I over type II, factor ([2]; antagonist)	effect on protein kinase A type II alpha holoenzyme [2]	current amplitude, % of the amplitude observed in the absence of the compound (bovine CNGA2 channels; +50 mV) [%]	current amplitude, % of the amplitude observed in the absence of the compound (bovine CNGA2 channels; −50 mV) [%]	intrinsic activity on CNGA2 channels (bovine CNGA2 channels; up to 100 μM, absence of cAMP)	current, % of its maximal value (bovine CNGA2 channels; +50 mV) [%]	current, % of its maximal value (bovine CNGA2 channels; −50 mV, mean±SEM) [%]	Substance	inhibition of channel activation by cAMP (bovine CNGA2 channels)
35	14	only moderately antagonistic	48±11	34±9	did not show any intrinsic activity	–	–	8-Bromoadenosine-3′,5′-cyclic boranophosphate, Sp-isomer [Sp-8-Br-cAMPB]	competitive antagonist
35	–	even higher activation potential	–	–	–	14±4	7±1	8-Bromoadenosine-3′,5′-cyclic boranophosphate, Rp-isomer [Rp-8-Br-cAMPB]	does not inhibit channel activation by cAMP

— patent US9487553B2, “Boranophosphate analogues of cyclic nucleotides” (BIOLOG LIFE SCIENCE INSTITUTE FORSCHUNGSLABOR UND …, priority 2011, dated 2016)
